The source of these data is patent publication US4868159A, “Novel substances KS-501 and KS-502 and process for their preparation” (Kyowa Hakko Kogyo Co., Ltd., priority 1987, dated 1989).

Series [1] has as its system rabbit platelets. In words: Effect on serotonin release from rabbit platelets. The format is cell-based, white rabbit. To be noted: for inhibition at 10 µg/mL: 10.0 μg/ml; for inhibition at 30 µg/mL: 30.0 μg/ml. The procedure: Effect on serotonin release from rabbit platelets
9.25 vol of blood was sampled from the carotid artery of a white rabbit and placed in a FALCON 2070 tube (product of Falcon, Bector Dickinson) containing 0.75 vol of 77 mM ethylenediaminetetraacetic acid (EDTA). The thus obtained blood was centrifuged at 200 x g for 15 minutes to obtain platelet rich plasma (referred to as PRP hereinafter). This PRP was incubated with [2-^14 C]-serotonin (2 μCi/100 ml PRP) at 37° C. for an hour to incorporate [2-^14 C]-serotonin therein. Then, the PRP was centrifuged at 650 x g for 15 minutes to obtain platelet precipitates. After washing with Tris-buffered physiological saline (pH 7.4, containing 1 mM EDTA), the platelet precipitates were suspended in CA^++ -free Tyrode's soluton to reach a final density of 10^9 cells/ml.
To 0.475 ml of the thus prepared [2-^14 C]-serotoninlabeled platelet suspension was added 5 μl of a solution of the test compound. After incubation at 37° C. for 3 minutes, platelet activating factor (final concentration: 10^-9 M) was added as a stimulant, followed by incubation for further 3 minutes. 0.3 ml of the reaction solution was immediately taken and poured into 30 µl of ice-cold 0.1 mM formaldehyde5mM EDTA solution to terminate the reaction. After centrifugation at 3,000 rpm at 0° C. for 10 minutes, 250 μl of the supernatant was taken and the radioactivity was measured with a liquid scintillation counter.
*The rate of inhibition of serotonin release was calculated according to
the following equation.

A further series is described as follows: Solubility. The format is physicochemical.
Series [2] has as its system rabbit platelets. In words: Effect on platelet aggregation of rabbit platelets. The format is cell-based, white rabbit. The note with it: for IC50: Oryctolagus cuniculus, Platelet, 37° C., read-out: IC50 (concentration of the test compound showing 50% inhibition), platelet aggregation. The procedure:
Effect on platelet aggreation of rabbit platelets
8.5 vol of blood was sampled from the carotid artery of a white rabbit and placed in a FALCON 2070 tube (product of Falcon, Bector Dickinson) containing 1.5 vol of citrate-dextrose soluton (71 mM citric acid, 85 mM sodium citrate and 111 mM dextrose). The thus obtained blood was centrifuged at 200×g for 15 minutes to obtain PRP. This PRP was centrifuged at 650×g for 10 minutes to obtain platelet precipitates. After washing with Ca^++ -free Tyrode's solution containing 2 mM ethyleneglycol bis(2-aminoethylether) tetraacetic acid (EGTA), the platelet precipitates were again centrifuged at 650 ×g for 10 minutes and washed. The thus obtained platelet precipitates were suspended in Ca^++ -free Tyrode's solution containing 0.25% bovine serum albumin to reach a density of 5×10^8 cells/ml. After the washed platelet suspension was allowed to stand at room temperature for about 30 minutes, 1 mM CaCl2 or 1 mM EGTA was added thereto and the mixture was allowed to stand for further 30 minutes. Then, platelet aggregation was measured.
The aggregation of platelets was determined using an aggregometer, AGGRETEC TE-500 (product of Erma Optical Co., Ltd.) to which the Born method was applied.
First, 10 μl of a test compound soluton was added to 0.2 ml of the washed platelet suspension, while stirring at 1,000 rmp and at 37° C. After incubation at 37° C. for 3 minutes, 10 μl of thrombin (final concentration: 0.05 U/ml) or platelet activating factor (final concentration: 10^-10 M) was added as a stimultant to initiate the reaction. The rate of inhibition of platelet aggregation of the test compound was calculated from the maximum aggregation rate obtained by the use of the test compound and the maximum aggregation rate obtained by the use of only the solvent used for dissolving the test compound, according to the following equation. [formula] A : Maximum aggregation rate of the solvent alone B : Maximum aggregation rate of the test compound
*Concentration of the test compound showing 50% inhibition.

Where [3] appears, read: Oryctolagus cuniculus, stimulant platelet activating factor 10^-9 M, 37° C., read-out: Rate of inhibition of serotonin release.
[4] abbreviates: hexane, carbon tetrachloride, benzene, neutral water, acidic water.

Each structure is given as a SMILES string. In brackets after ≈: the same amount, converted by molar mass. Entries after “also recorded” stand apart in the source; their conditions may differ. Where two headings read alike, the source gives them in different places.

What is called inhibition is the relative decrease from the control value, in per cent. As to `CCCCCCCc1cc(OC(=O)c2c(CCCCCCC)cc(O)cc2OC2OC(C(O)CO)C(O)C2O)cc(O)c1C(=O)O` (stereo not drawn) [KS-502], the “Inhibition of serotonin release from platelets (in words)” value with rabbit platelets [1] is on record as “inhibitory activity on serotonin release from platelets; also recorded: inhibited serotonin release from rabbit platelets, depending on the concentration”. Besides, the inhibition at 10 µg/mL in the series with rabbit platelets [1] (setting [3]) came out at 2.7%. The inhibition at 30 µg/mL with rabbit platelets [1] (setting [3]) worked out at 28.9%. For the same compound, the inhibition at 50 µg/mL in the series with rabbit platelets [1] (Oryctolagus cuniculus, 50.0 μg/ml, stimulant platelet activating factor 10^-9 M, 37° C., read-out: Rate of inhibition of serotonin release) came out at 51.4%. Besides, the Solubility result in “Solubility” (KS-502: chloroform, ethyl acetate, acetonitrile) is listed as “Soluble”; in the series “Solubility” (setting [4]), “Insoluble”.

For `CCCCCCCc1cc(O)cc(OC(=O)c2c(CCCCCCC)cc(O)cc2OC2OC(C(O)CO)C(O)C2O)c1` (stereo not drawn) [KS-501], in the series with rabbit platelets [1], the “Inhibition of serotonin release from platelets (in words)” value is on record as “inhibitory activity on serotonin release from platelets; also recorded: inhibited serotonin release from rabbit platelets, depending on the concentration”. Moreover, the inhibition at 3 µg/mL in the series on rabbit platelets [1] (Oryctolagus cuniculus, 3.0 μg/ml, stimulant platelet activating factor 10^-9 M, 37° C., read-out: Rate of inhibition of serotonin release) stood at 10.2%. Besides, the inhibition at 10 µg/mL with rabbit platelets [1] (setting [3]) is 27.1%. Moreover, the inhibition at 30 µg/mL in the series with rabbit platelets [1] (setting [3]) came out at 66.4%. Moreover, the Solubility entry was “Readily soluble” in the series “Solubility” (KS-501: chloroform, ethyl acetate, acetonitrile, methanol, n-butanol, acetone, tetrahydrofuran, dioxane, dimethylsulfoxide, pyridine, monoethanolamine, acetic acid, alkaline water) and “Insoluble” in “Solubility” (setting [4]). The “Inhibition of platelet aggregation (in words)” value in the series with rabbit platelets [2] is “inhibitory activity on platelet aggregation; also recorded: inhibited platelet aggregation stimulated with thrombin and platelet activating factor”. Besides, the IC50 stood at 38 µg/mL (≈ 62.8 µM) in the series on rabbit platelets [2] (stimulant platelet activating factor, final concentration 10^-10 M) and 57 µg/mL (≈ 94.3 µM) in the series on rabbit platelets [2] (stimulant thrombin, final concentration 0.05 U/ml).
